Test results as given in the supplement of paper PMC10307832.

How the values were obtained:
Assay in all cases: relative viability (nuclei count vs DMSO), 5 days (fraction); higher = more cells survive
[1] = tested on: NCI-H1355
In short: (§1)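 Values are medians from duplicate plates. Each reflects relative viability, defined as the nuclei count of treated wells over that of vehicle wells. Lung cancer cell lines in 1536-well plates were pin-tool dosed one day after seeding with one drug alone or with a fixed anchor-drug dose plus five library-drug doses (not always all listed) in √10 steps, then fixed, stained and imaged at 4× after 5 days.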

[2] = tested on: ABC-1
In short: as §1

[3] = tested on: NCI-H1993
In short: as §1

[4] = tested on: CAL-12T
In short: as §1

[5] = tested on: 201T
In short: as §1

[6] = tested on: NCI-H322M
In short: as §1

[7] = tested on: NCI-H2170
In short: as §1

[8] = tested on: HCC-44
In short: as §1

[9] = tested on: NCI-H647
In short: as §1

[10] = tested on: NCI-H1395
In short: as §1

[11] = tested on: NCI-H661
In short: as §1

[12] = tested on: NCI-H2347
In short: as §1

[13] = tested on: COR-L23
In short: as §1

[14] = tested on: LC-2-ad
In short: as §1

[15] = tested on: HOP-62
In short: as §1

[16] = tested on: NCI-H520
In short: as §1

[17] = tested on: NCI-H2228
In short: as §1

[18] = tested on: NCI-H1651
In short: as §1

[19] = tested on: NCI-H2085
In short: as §1

[20] = tested on: NCI-H838
In short: as §1

[21] = tested on: NCI-H1666
In short: as §1

[22] = tested on: NCI-H23
In short: as §1

Work on `Cc1cnc(-c2cnc(NCCNc3ccc(C#N)cn3)nc2-c2ccc(Cl)cc2Cl)[nH]1` + CS(=O)(=O)CCNCc1ccc(-c2ccc3ncnc(Nc4ccc(OCc5cccc(F)c5)c(Cl)c4)c3c2)o1 [Lapatinib] (partner 2 µM) yielded a relative viability ([1]; first compound 0.08 µM) of 1.06, a relative viability ([1]; first compound 0.253 µM) of 0.8 and a relative viability ([1]; first compound 0.8 µM) of 0.95. The relative viability ([1]; first compound 2.53 µM) was 0.909, the relative viability ([2]; first compound 0.08 µM) was 1.22 and the relative viability ([2]; first compound 0.253 µM) was 0.969. For the same compound, the relative viability ([2]; first compound 0.8 µM) was 1.09, the relative viability ([2]; first compound 2.53 µM) was 1.11 and the relative viability ([3]; first compound 0.08 µM) was 0.957. The relative viability ([3]; first compound 0.253 µM) was 0.756, the relative viability ([3]; first compound 0.8 µM) was 0.823 and the relative viability ([3]; first compound 2.53 µM) was 0.937. For the same compound, the relative viability ([4]; first compound 0.253 µM) was 0.64, the relative viability ([4]; first compound 2.53 µM) was 0.627 and the relative viability ([5]; first compound 0.08 µM) was 1.05. For the same compound, the relative viability ([5]; first compound 0.253 µM) was 0.551, the relative viability ([5]; first compound 0.8 µM) was 1.01 and the relative viability ([5]; first compound 2.53 µM) was 0.988. It also gave a relative viability ([6]; first compound 0.08 µM) of 0.575, a relative viability ([6]; first compound 0.253 µM) of 0.565 and a relative viability ([6]; first compound 0.8 µM) of 0.594. The relative viability ([6]; first compound 2.53 µM) was 0.555, the relative viability ([7]; first compound 0.08 µM) was 0.298 and the relative viability ([7]; first compound 0.253 µM) was 0.262. The relative viability ([7]; first compound 0.8 µM) was 0.279, the relative viability ([7]; first compound 2.53 µM) was 0.32 and the relative viability ([8]; first compound 0.08 µM) was 0.99. It also gave a relative viability ([8]; first compound 0.253 µM) of 0.858, a relative viability ([8]; first compound 0.8 µM) of 0.989 and a relative viability ([8]; first compound 2.53 µM) of 1.06. The relative viability ([9]; first compound 0.08 µM) was 1.19, the relative viability ([9]; first compound 0.253 µM) was 0.838 and the relative viability ([9]; first compound 0.8 µM) was 1.02. For the same compound, the relative viability ([9]; first compound 2.53 µM) was 0.936, the relative viability ([10]; first compound 0.08 µM) was 1.04 and the relative viability ([10]; first compound 0.253 µM) was 0.776. The relative viability ([10]; first compound 0.8 µM) was 1.07, the relative viability ([10]; first compound 2.53 µM) was 0.94 and the relative viability ([11]; first compound 0.08 µM) was 0.523. It also gave a relative viability ([11]; first compound 0.253 µM) of 0.452, a relative viability ([11]; first compound 0.8 µM) of 0.449 and a relative viability ([11]; first compound 2.53 µM) of 0.54. For the same compound, the relative viability ([12]; first compound 0.08 µM) was 0.862, the relative viability ([12]; first compound 0.253 µM) was 0.649 and the relative viability ([12]; first compound 0.8 µM) was 1.06. For the same compound, the relative viability ([12]; first compound 2.53 µM) was 1.02, the relative viability ([13]; first compound 0.08 µM) was 0.924 and the relative viability ([13]; first compound 0.253 µM) was 0.856. The relative viability ([13]; first compound 0.8 µM) was 0.862, the relative viability ([13]; first compound 2.53 µM) was 0.905 and the relative viability ([14]; first compound 0.08 µM) was 1.06. The relative viability ([14]; first compound 0.8 µM) was 0.761, the relative viability ([14]; first compound 2.53 µM) was 0.898 and the relative viability ([15]; first compound 0.08 µM) was 1.01. For the same compound, the relative viability ([15]; first compound 0.253 µM) was 0.902, the relative viability ([15]; first compound 0.8 µM) was 1.05 and the relative viability ([15]; first compound 2.53 µM) was 1.04. It also gave a relative viability ([16]; first compound 0.08 µM) of 0.962, a relative viability ([16]; first compound 0.253 µM) of 0.823 and a relative viability ([16]; first compound 0.8 µM) of 0.93. It also gave a relative viability ([16]; first compound 2.53 µM) of 0.891, a relative viability ([17]; first compound 0.08 µM) of 1.23 and a relative viability ([17]; first compound 0.253 µM) of 0.904. For the same compound, the relative viability ([17]; first compound 0.8 µM) was 0.911, the relative viability ([17]; first compound 2.53 µM) was 0.781 and the relative viability ([18]; first compound 0.08 µM) was 0.937. For the same compound, the relative viability ([18]; first compound 0.253 µM) was 0.712, the relative viability ([18]; first compound 0.8 µM) was 0.862 and the relative viability ([18]; first compound 2.53 µM) was 0.917. The relative viability ([19]; first compound 0.08 µM) was 0.837, the relative viability ([19]; first compound 0.253 µM) was 0.8 and the relative viability ([19]; first compound 0.8 µM) was 0.786. The relative viability ([19]; first compound 2.53 µM) was 0.848, the relative viability ([20]; first compound 0.08 µM) was 1.12 and the relative viability ([20]; first compound 0.253 µM) was 0.858. For the same compound, the relative viability ([20]; first compound 0.8 µM) was 1.11, the relative viability ([20]; first compound 2.53 µM) was 1.27 and the relative viability ([21]; first compound 0.08 µM) was 0.768. The relative viability ([21]; first compound 0.253 µM) was 0.554, the relative viability ([21]; first compound 0.8 µM) was 0.595 and the relative viability ([21]; first compound 2.53 µM) was 0.62. The relative viability ([22]; first compound 0.08 µM) was 1.14, the relative viability ([22]; first compound 0.253 µM) was 1.02 and the relative viability ([22]; first compound 0.8 µM) was 1.07. It also gave a relative viability ([22]; first compound 2.53 µM) of 1.11.
